Source: patent US10576144B2, “Amino acid and peptide conjugates and conjugation process” (AUCKLAND UNISERVICES LIMITED, priority 2014, dated 2020)
Residues, ends and D or L forms follow the SMILES beside them. *: point of attachment. Ethyl(2-palmitoyloxy) = CCCCCCCCCCCCCCCC(=O)OCC*; Palmitoyl = CCCCCCCCCCCCCCCC(=O)*

How the values were obtained:
CD8+ T cell clone 1C11 = assay: CD8+ T cell clone activation assay, NY-ESO-1 118-143 constructs, autologous LCL as APC; format: cell-based, human
Method: Human CD4+ and CD8+ T cell clones were maintained at a concentration of 1-3×10^6/ml in RPMI 1640 supplemented with Glutamax, Penicillin/Streptomycin and 5% v/v human serum (“RS5”, all reagents from Life Technologie). Media was refreshed 50% v/v twice weekly. RS5 for CD4+ T cell clones was supplemented with IL-7 and IL-21, and RS5 for CD8+ T cell clones was supplemented with IL-7+IL-15 (all cytokines from PeproTech, used at a final concentration of 5 ng/ml).
Epstein-Barr Virus (“EBV”)-producing B95-8 MM cells were grown in RPMI 1640 supplemented with Glutamax, Penicillin/Streptomycin and 10% v/v fetal bovine serum (“RF10”, all reagents from Invitrogen) in T75 flasks (BD Biosciences). EBV-containing medium was collected and centrifuged to pellet non-adherent cells, and the EBV-containing supernatant then filter-sterilised (0.22 μm). 10×10^6 donor Peripheral Blood Mononuclear Cells (“PBMC”) were suspended in 1.5 ml RF10 in aT25 flask (BD Biosciences). 2.5 ml B95-8 cell culture supernatant was added and cells incubated for 2 hours. 1 ml fresh RF10 containing 5% v/v Phytohemaglutanin (“PHA”, Gibco) was then added (1% v/v final concentration). Flasks were monitored for outgrowth of B cell LCL, typically over 4-6 weeks, with transfer to a T75 flask (BD Biosciences) when required. LCL lines were cryopreserved and working stocks maintained in RF10 at 0.5-1.5×10^6/ml.
Donor LCL or MoDC (also referred to herein as antigen presenting cells or “APC”) were incubated for 16 h in RF10+ peptide/construct at desired concentration. In samples where Pam3Cys (“P3C”) and peptide moieties were both present but unconjugated, LCL were pre-treated with P3C for 30 minutes, and media then refreshed with RF10 containing both P3C and peptide. Untreated APC were incubated in RF10 only. APC/construct incubation was performed in 96 well plates (U-bottom, BD Biosciences) or in 48wp (flat bottom, BD Biosciences) depending of the nature of the assay and the numbers of APC required per treatment. Following incubation, APC were washed with RPMI 1640 4 times, to remove unbound construct/P3C. […]

CD4+ T cell clone 1D6 = assay: CD4+ T cell clone activation assay, NY-ESO-1 118-143 constructs, autologous LCL as APC; format: cell-based, human; settings: LCL pulsed with construct; 147 tested +/−P3C; 116 and 115 titratable (FIG. 13)
Method: Epstein-Barr Virus (“EBV”)-producing B95-8 MM cells were grown in RPMI 1640 supplemented with Glutamax, Penicillin/Streptomycin and 10% v/v fetal bovine serum (“RF10”, all reagents from Invitrogen) in T75 flasks (BD Biosciences). EBV-containing medium was collected and centrifuged to pellet non-adherent cells, and the EBV-containing supernatant then filter-sterilised (0.22 μm). 10×10^6 donor Peripheral Blood Mononuclear Cells (“PBMC”) were suspended in 1.5 ml RF10 in aT25 flask (BD Biosciences). […] Flasks were monitored for outgrowth of B cell LCL, typically over 4-6 weeks, with transfer to a T75 flask (BD Biosciences) when required. […]
Data acquisition was performed using a BD FACSAria II with FACSDiva software, and data analysis was performed using FlowJo software (Treestar). Data were presented as the median fluorescence intensity (MFI)+SD of CD25 and CD134 expression on live clonal cells. […]

human monocytes = assay: Activation of human monocytes in whole blood (CD80 up-regulation, flow cytometry); format: cell-based
Method: 100 μl of heparinised whole blood (WB) was incubated with 100 nM, 1 μM and 10 μM of each compound, in duplicate, and incubated overnight at 37° C. in a 5% CO2 humidified incubator. […] EMC Microcollections) was used as a positive control. To detect activation of monocytes, WB samples were stained with anti-CD14-FITC, anti-HLA-DR-Alexa700, anti-CD80-PE-Cy7, anti-CD40-PE, anti-CD86-APC, anti-CD16-APC-Cy7 (all from Biolegend) for 20 mins at RT, protected from light. Following incubation, 2 ml of BD FACS lyse (BD Biosciences) was added, incubated for 15 mins at RT, then washed twice with ice cold wash buffer (PBS, 1% Human Serum). Data acquisition was performed on a BD FACS Aria II (Becton Dickinson) and analysed using FlowJo software version 7.6.5 (TreeStar). CD80 receptor expression on monocytes was detected by gating on CD14+ HLADR+ cells.

147 (VPGVLLKEFTVSGNILTIRLTAADHR; C-terminal acid) [compound 147]
T cell activation (CD8+ T cell clone 1C11; 100 nM): No or negligible T cell activation | T cell activation (CD8+ T cell clone 1C11; 1 μM, with exogenous P3C): 75% | T cell activation (CD8+ T cell clone 1C11; 1 μM, without exogenous P3C): 60% | response of clone 1D6 (CD4+ T cell clone 1D6): does not respond

CCCCCCCCCCCCCCCC(=O)SC[C@H](N)C(=O)N[C@@H](CO)C(=O)N[C@@H](CCCCN)C(=O)N[C@@H](CCCCN)C(=O)N[C@@H](CCCCN)C(=O)N[C@@H](CCCCN)C(N)=O [compound 20] (H-C(Palmitoyl)SKKKK-NH2)
potency of CD80 up-regulation compared to 22 and 26 (human monocytes; in three donors): lower potency than 22 and 26

CCCCCCCCCCCCCCCC(=O)OCCSC[C@H](NC(C)=O)C(=O)N[C@@H](CO)C(=O)N[C@@H](CCCCN)C(=O)N[C@@H](CCCCN)C(=O)N[C@@H](CCCCN)C(=O)N[C@@H](CCCCN)C(N)=O [compound 22] (Ac-C(Ethyl(2-palmitoyloxy))SKKKK-NH2)
potency of CD80 up-regulation compared to Pam3CSK4 (human monocytes; 10 μM dose, in most donors): equivalent potency to Pam3CSK4 | up-regulation of expression of CD80 on monocytes (human monocytes; all doses tested (100 nM, 1 μM, 10 μM), whole blood of five donors, overnight): strongly upregulated expression of CD80
